Data published in ChEMBL document CHEMBL3507680, “University of Dundee, Gates Library screen for HepG2 cell viability”.

Test: Human HepG2 cell viability assay in 384 well format
Assay type: toxicity, cell-based
Set-up: dose 125 nL, time 70.5 hour; cytotoxicity at 70.5 h: concentration not given beside the values
Conditions: HepG2 cells, read-out: Inhibition

Compound	cytotoxicity at 70.5 h [%]
NS(=O)(=O)c1cccnc1Nc1cccc(Cl)c1Cl	3.67
CCc1ncc(C(=O)c2ccc(OC)cc2)n1C	17.9
CN(C(=O)c1ccco1)c1nc2c(s1)CCCC2	-3.33
CCc1ccc(OCCn2cccn2)cc1	23.9
CNc1cc(-c2cc(OC)c(OC)c(OC)c2)ncn1	-6.66
Cc1cc(C(=O)NCc2ccccn2)no1	-6.09
O=C1CCCc2nccc(-c3ccccc3)c21	23.5
Cc1cc2nc(CN(C)c3ccccc3)cc(=O)n2o1	3.13
Cc1nc(C)c(CN2CCOC(Cc3ccccc3Cl)C2)nc1C (stereo not drawn)	-2.34
COc1ccc2c(ccn2CCC(=O)O)c1	27.9
CC(C)CC(NC(=O)OC(C)(C)C)C(N)=O (stereo not drawn)	20.5
Cn1ncc2c1CCCN(C(=O)C1CCCC1)C2	-0.407
N#Cc1ncn(CCC(=O)Nc2ccc(Cl)cc2F)n1	-7.28
CC(C)c1ccc(CNC(C)c2ccc(S(C)(=O)=O)cc2)cc1 (stereo not drawn)	-8.82
Cc1ccc(S(=O)(=O)N2CCN(CCC#N)CC2)s1	7.61
N[C@@H](Cc1ccccc1)c1nnc(S(=O)(=O)Cc2ccccc2)o1	15.6
COc1ccnc(NC2CCN(CC(=O)Nc3ccccc3)CC2)n1	4.43
CCN1CCN(C(=O)c2ccn(C)c(=O)c2)CC1	32.5
CCN(CC)S(=O)(=O)c1ccc(C(=O)NC(C)(C#N)C2CC2)cc1 (stereo not drawn)	19.1
O=C(N1CCCCC1)N1CCN(CC(O)c2ccc(F)cc2)CC1 (stereo not drawn)	-7.9

Compound	cytotoxicity at 70.5 h [%]
Cc1n[nH]c(=O)c2c(NC(=O)CN3CCOC(C)C3)oc(C)c12 (stereo not drawn)	12.5
CN(CC(=O)N1CCCC1)C(=O)c1ccccc1Nc1ccccc1	18.3
CC(C)(C)c1nnnn1CC(=O)N(CCC#N)c1ccccc1	-9.07
Cn1ccc(C(=O)NCCOc2ccc(C(C)(C)C)cc2)cc1=O	-4.21
O=C(NCCSC1CCCC1)c1cc(C2CC2)on1	-0.97
CC(=O)N(C)Cc1ccccc1NCc1c(C)noc1C	-3.61
CC(=O)c1ccc(OCC(=O)c2cccn2C)cc1	-0.625
O=C(C1CC(c2ccccc2)=NO1)N1CCc2ccccc21 (stereo not drawn)	28.5
CCC(NS(C)(=O)=O)c1ccccc1OC (stereo not drawn)	-1.94
O=C(CCn1cccn1)NCCOc1cccc(Cl)c1	-7.23
Cc1ccc(NCc2ccccc2C#N)cc1-n1cnnn1	0.552
CN(C)C(=O)C1CCCN1c1ncnc2ccsc12 (stereo not drawn)	-10.1
CN1CCC(CNC(=O)c2cccc(C(F)(F)F)c2)c2ccccc21 (stereo not drawn)	0.294
Cc1nnc(NCc2cccc(OCC3CCCO3)c2)c(C#N)c1C (stereo not drawn)	29
CS(=O)(=O)c1ccc(NCC2CCCO2)c(S(C)(=O)=O)c1 (stereo not drawn)	-9.12
CCn1cnnc1CNc1nc(C)nc2scc(CC(C)C)c12	-15.9
Cc1cc(NCCc2nc(C)cs2)nc(-c2cccnc2)n1	-9.72
Cn1cc(S(=O)(=O)N(CC(F)(F)F)C2CC2)cc1C(N)=O	-4.65
N#Cc1ncn(CC(=O)Cc2c(F)cccc2Cl)n1	-5.66
Cc1c(C(C)Nc2ncnc3sccc23)cnn1C (stereo not drawn)	-8.04

Compound	cytotoxicity at 70.5 h [%]
Cc1nnc(NCc2cccc(OCc3ccccn3)c2)c(C#N)c1C	-4.44
c1cc(CNCCc2cn3ccccc3n2)c2c(c1)OCCCO2	-6.72
Cc1cc(C)c2cc(C(=O)N3CCN(Cc4ccco4)CC3)[nH]c2c1	-13.2
Cc1csc(NC(=O)CN(C)CCOc2cccc(F)c2)n1	15.2
Cc1ccccc1OCCn1cnc2oc(C)c(C(=O)O)c2c1=O	-7.96
CNC(=O)Nc1cc(-c2ccccc2C)nn1CCO	21.1
CN(C(=O)CCNC(=O)NC1CCCCC1)c1ccccc1	38.6
COc1ccc(NC(=O)NCC(O)c2ccc(F)cc2F)c(OC)c1 (stereo not drawn)	2.76
CC1CCN(C(=O)c2ccnc(-n3cncn3)c2)c2ccccc21 (stereo not drawn)	13.2
CNC(=O)NC(=O)CSc1ccc2c(c1)CCC2	-5.43
CCN1C(=O)CC(N(C)Cc2nc3ccccc3c(=O)[nH]2)C1=O (stereo not drawn)	-7.75
Cc1ccccc1CSCCn1nc2ccccn2c1=O	-9.36
CN1C(=O)C2(NC(=O)c3ccccc3O2)c2ccccc21 (stereo not drawn)	-16.5
Cc1n[nH]c(C(=O)NCc2ccnc(OCC(F)(F)F)c2)c1Br	-4.39
O=C(Nc1cccc(OCc2cccc(F)c2)c1)C1COCCO1 (stereo not drawn)	-0.586
CNC(=O)c1cc2ccccc2n1C	16.4
CN(C)S(=O)(=O)N1CCN(c2cc(-n3cccc3)ncn2)CC1	-6
Cn1cc(C(=O)OC2CN(c3nc4c(C(F)(F)F)cccc4s3)C2)nn1	1.02
